From US20250171437A1 (Agios Pharmaceuticals,Inc., priority 2022, published 2025) come the findings set out here.

In the experiment the target is T1, human PAH with the R408W mutation (A375 R408W cells) (Homo sapiens, UniProt P00439, R408W).
T1 construct: expressed in transfected cells
T1 sequence (P00439 1-452 R408W): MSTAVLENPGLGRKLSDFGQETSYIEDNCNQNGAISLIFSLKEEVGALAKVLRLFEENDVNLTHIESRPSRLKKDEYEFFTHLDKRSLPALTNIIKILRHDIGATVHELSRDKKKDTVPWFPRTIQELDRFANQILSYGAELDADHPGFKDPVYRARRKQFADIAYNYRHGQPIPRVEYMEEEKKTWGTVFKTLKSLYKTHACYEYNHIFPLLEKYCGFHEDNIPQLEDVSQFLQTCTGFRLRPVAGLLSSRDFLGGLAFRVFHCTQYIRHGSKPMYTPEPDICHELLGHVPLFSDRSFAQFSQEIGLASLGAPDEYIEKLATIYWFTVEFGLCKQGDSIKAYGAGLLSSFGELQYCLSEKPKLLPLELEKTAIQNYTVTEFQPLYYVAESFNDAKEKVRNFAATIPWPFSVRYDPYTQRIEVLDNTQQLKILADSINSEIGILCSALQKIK
The experiment in a line: Cell Based Phenylalanine Flux Assay. Conditions: 24 hrs with compound, then 20 μM sepiapterin and 800 μM 13C9,15N-Phenylalanine for 4 hours, 13C-Tyrosine by LC-MS, average where tested multiple times. Summed up:
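Puromycin-selected A375 line, lentiviral hPAH R408W; cmpd 24 h, 37 °C, 5% CO2, 0.5% DMSO; then 20 μM sepiapterin + 800 μM 13C9,15N-Phe, 4 h; media extracted in 80% MeCN; 13C-Tyr by LC-MS; AC50 from 10-pt curves.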

[1] abbreviates: A375 cells expressing R408W PAH.

With `CN1CCN(c2nc(C(F)F)c(C(=O)N3CCc4[nH]cnc4[C@H]3c3nc4cc(F)ccc4o3)o2)CC1` [Example 403, (S)-(4-(difluoromethyl)-2-(4-methylpiperazin-1-yl)oxazol-5-yl)(4-(5-fluorobenzo[d]oxazol-2-yl)-6,7-dihydro-1H-imidazo[4,5-c]pyridin-5(4H)-yl)methanone], for the setting “A375 R408W cells”, the AC50 (commonly the concentration giving half of the maximal activity seen) lay within 0.5 to 1 µM.

For `Cc1ccc2oc([C@H]3c4nc[nH]c4CCN3C(=O)c3oc(C(C)(C)O)nc3Br)nc2c1` [Example 408, (R)-(4-bromo-2-(2-hydroxypropan-2-yl)oxazol-5-yl)(4-(5-methylbenzo[d]oxazol-2-yl)-6,7-dihydro-1H-imidazo[4,5-c]pyridin-5(4H)-yl)methanone], where the note is “A375 R408W cells”, the AC50 lay within 0.5 to 1 µM.

Turning to `O=C(c1ocnc1C(F)(F)F)N1CCc2[nH]cnc2[C@H]1c1nc2ccc(F)cc2o1` [Example 161, (S)-(4-(6-fluorobenzo[d]oxazol-2-yl)-6,7-dihydro-1H-imidazo[4,5-c]pyridin-5(4H)-yl)(4-(trifluoromethyl)oxazol-5-yl)methanone], for the setting “A375 R408W cells”, the AC50 was no more than 0.5 µM.

With `O=C(c1ccnn1C(F)(F)F)N1CCc2[nH]cnc2[C@H]1c1nc2cc(F)ccc2o1` [Example 261, (S)-(4-(5-fluorobenzo[d]oxazol-2-yl)-6,7-dihydro-1H-imidazo[4,5-c]pyridin-5(4H)-yl)(1-(trifluoromethyl)-1H-pyrazol-5-yl)methanone], the AC50 (A375 R408W cells) was 0.5 to 1 µM.

With `O=C(c1ocnc1C(F)F)N1CCc2[nH]cnc2[C@@H]1c1nc2ccccc2o1` [Example 468, (R)-(4-(benzo[d]oxazol-2-yl)-6,7-dihydro-1H-imidazo[4,5-c]pyridin-5(4H)-yl)(4-(difluoromethyl)oxazol-5-yl)methanone], where the note is “A375 R408W cells”, the AC50 fell in the range of 0.5 to 1 µM.

`Cc1cccc2nc([C@@H]3c4nc[nH]c4CCN3C(=O)c3nnc(-c4ccccn4)o3)oc12` [Example 567, (S)-(4-(7-methylbenzo[d]oxazol-2-yl)-6,7-dihydro-1H-imidazo[4,5-c]pyridin-5(4H)-yl)(5-(pyridin-2-yl)-1,3,4-oxadiazol-2-yl)methanone]: the AC50 (A375 R408W cells) is no more than 0.5 µM.

As to `Cc1ncoc1C(=O)N1CCc2[nH]cnc2[C@H]1c1nc2cccc(F)c2o1` [Example 569, (S)-(4-(7-fluorobenzo[d]oxazol-2-yl)-6,7-dihydro-1H-imidazo[4,5-c]pyridin-5(4H)-yl)(4-methyloxazol-5-yl)methanone], the AC50 (A375 R408W cells) is no more than 0.5 µM.

As to `Cn1nc(C(F)F)cc1C(=O)N1CCc2[nH]cnc2C1c1nc2cc(F)ccc2o1` (centres unmarked), the AC50 under setting [1] fell in the range of 1 to 5 µM.

`COc1cccc2nc([C@@H]3c4nc[nH]c4CCN3C(=O)c3ccnn3C)oc12` [Example 749, (S)-(4-(7-methoxybenzo[d]oxazol-2-yl)-6,7-dihydro-1H-imidazo[4,5-c]pyridin-5(4H)-yl)(1-methyl-1H-pyrazol-5-yl)methanone]: the AC50 (A375 R408W cells) was no more than 0.5 µM.

As to `CC(F)(F)c1ncoc1C(=O)N1CCc2[nH]cnc2[C@@H]1c1nc2cc(F)ccc2o1` [Example 154, (R)-(4-(1,1-difluoroethyl)oxazol-5-yl)(4-(5-fluorobenzo[d]oxazol-2-yl)-6,7-dihydro-1H-imidazo[4,5-c]pyridin-5(4H)-yl)methanone], the AC50 (A375 R408W cells) was in the range of 1 to 5 µM.

Take `O=C(c1ocnc1C(F)(F)F)N1CCc2[nH]cnc2[C@@H]1c1nc2ccc(Br)cc2o1` [Example 144, (R)-(4-(6-bromobenzo[d]oxazol-2-yl)-6,7-dihydro-1H-imidazo[4,5-c]pyridin-5(4H)-yl)(4-(trifluoromethyl)oxazol-5-yl)methanone]: the AC50 (A375 R408W cells) is no more than 0.5 µM.

For the compound `Cc1ccc2oc([C@@H]3c4nc[nH]c4CCN3C(=O)c3oc(C(C)(C)O)nc3Br)nc2c1` [Example 407, (S)-(4-bromo-2-(2-hydroxypropan-2-yl)oxazol-5-yl)(4-(5-methylbenzo[d]oxazol-2-yl)-6,7-dihydro-1H-imidazo[4,5-c]pyridin-5(4H)-yl)methanone], the AC50 (A375 R408W cells) is no more than 0.5 µM.

As to `COc1ccc2oc(C3c4nc[nH]c4CCN3C(=O)c3nc(C)nn3C)nc2c1` (centres unmarked), the AC50 under setting [1] was in the range of 1 to 5 µM.

For `Cc1ncoc1C(=O)N1CC2(CC2)c2[nH]cnc2C1c1nc2cc(F)ccc2o1` (centres unmarked), the AC50 under setting [1] lay in the range of 1 to 5 µM.
